Experimental data reported in article PMC10928712, “High Target Homology Does Not Guarantee Inhibition: Aminothiazoles Emerge as Inhibitors of Plasmodium falciparum” (ACS Infectious Diseases, 2024).

Key:
P. falciparum NF54 [1] = assay: IDP rescue assay, P. falciparum NF54; assay type: cell-based; conditions: Plasmodium falciparum
Procedure: Fidock (Columbia University). […] P. falciparum cultures were treated as described in method II. For IDP (Isoprenoids.com) rescue experiments, 125 μM IDP was added to the appropriate wells for the duration of the experiment. The well-described DXR inhibitor FSM was used as a positive control. IC50 values were calculated by nonlinear regression analysis using GraphPad Prism software. All experiments were performed at least in triplicate, and data reported represent the mean ± SD.

Hep G2 cells = assay: Hep G2 viability assay (counter screen); assay type: cell-based, human; conditions: cytotoxicity, 48 h
Procedure: HepG2 cells (2 × 10^5 cells per well) were seeded in 24-well, flat-bottomed plates. Culturing of cells, incubations, and OD measurements were performed as described previously with small modifications.[58] 24 h after seeding the cells, the incubation was started by the addition of compounds in a final DMSO concentration of 1%. The metabolic activity of the living cell mass was determined after 48 h. At least three independent measurements were performed for each compound. The IC50 values were determined during logarithmic growth using GraphPad Prism software. All experiments were performed at least in triplicate, and data reported represent the mean ± SD.

[2] = system: MEP pathway and TCA cycle metabolites in P. falciparum 3D7; assay: LC-MS/MS profiling of MEP pathway, TCA cycle, glycolytic and pentose phosphate metabolites in P. falciparum; assay type: cell-based, Plasmodium falciparum; conditions: 12 h
P. falciparum NF54 [3] = assay: Method II growth-inhibition assay (PicoGreen, 3 days), NF54; assay type: cell-based; conditions: Plasmodium falciparum; chloroquine-sensitive NF54, method II
Source text: (§1) Fidock (Columbia University).

P. falciparum 3D7 [4] = assay: Method III growth inhibition assay (HRP2-ELISA, 3 days), 3D7; assay type: cell-based, Plasmodium falciparum; conditions: Plasmodium falciparum, 3D7, 3D7, method III (HRP2 assay), drc package of R; read-out: IC50 P. falciparum 3D7 (method III)
P. falciparum Dd2 = assay: Method III growth inhibition assay (HRP2-ELISA, 3 days), Dd2; assay type: cell-based, Plasmodium falciparum; conditions: Plasmodium falciparum, DD2, chloroquine-resistant Dd2, method III
[5] = system: blood-stage P. falciparum 3D7; conditions: Plasmodium falciparum
[6] = system: P. falciparum 3D7 MOCK cell line; assay: Growth inhibition of MOCK cell line (vector backbone only); assay type: cell-based; conditions: Plasmodium falciparum, 3D7, read-out: MOCK IC50, MOCK compared with 3D7-TPK+; single measurement; 95% CI in brackets
Source text: (§2) The open reading frame (ORF) encoding 1-deoxy-D-xylulose-5-phosphate synthase (PfDXPS; PF3D7_1337200) was amplified from genomic DNA isolated from unsynchronized P. falciparum 3D7 cultures using the Platinum PCR SuperMix High Fidelity (Invitrogen). Forward and reverse primers contained restriction sites for KpnI and AvrII in sense and antisense orientation, respectively (oligonucleotides pfDXPS-Kpn1-S: […]; pfDXPSmyc-Avr2-AS: […] ). PCR products and the transfection vector pARL1a-hDHFR PfARG-GFP were digested with KpnI and AvrII, purified (Gel extraction Kit and PCR purification kit; Qiagen), and cloned into the transfection vector yielding the construct for overexpression pARL-DXS-strep. XL 10-Gold E. coli ultracompetent cells (Agilent Technologies) were transformed with the generated construct to amplify the plasmid and colonies checked using restriction analysis and sequencing of the plasmid. Bacterial clones carrying the overexpression construct and the empty pARL1a vector (MOCK plasmid) were amplified in overnight cultures, isolated (Plasmid Maxi Kit; QIAGEN), and subsequently used to transfect P. falciparum 3D7 ring-stage parasites, as already described.[59] Briefly, 120 μg of plasmid DNA was centrifuged and air-dried, and the pellet was resuspended in TE buffer and cytomix reagent and mixed with the P. falciparum culture. Parasites were transfected using electroporation and selected with WR 99210. The generation and characterization of the PfTPK overexpression cell line has been reported before.[60]
(§3) P. falciparum cultures were treated as described in method I. For target specification toward PfTPK and PfDXPS, compounds were tested in comparison against overexpressing cell lines and the respective MOCK line containing only the transfected vector backbone. Parasite viability/proliferation was determined.

[7] = system: Mycobacterium tuberculosis H37Rv strain; parameters: method as in PMID 36320685; conditions: cited from earlier work
P. falciparum 3D7 [8] = assay: Method II growth-inhibition assay (PicoGreen, 3 days), 3D7; assay type: cell-based; conditions: Plasmodium falciparum, 3D7, method II
Source text: as §1

P. falciparum 3D7-DXPS+ = assay: Growth inhibition of PfDXPS overexpressing parasites (3D7-DXPS+); assay type: cell-based; conditions: Plasmodium falciparum, 3D7, read-out: PfDXPS IC50
Source text: as §2, §3

P. falciparum 3D7-TPK+ = assay: Growth inhibition of PfTPK overexpressing parasites (3D7-TPK+); assay type: cell-based; conditions: Plasmodium falciparum, 3D7, read-out: PfTPK IC50
Procedure: as §3, with “determined. Analysis of the IC50 values and interpretation of the curves was performed, as described in Section 4.1.2.44.” for “determined.”
eq 1: Fluorescence data normalization [drawing 2] where y is the fluorescence signal in each well, yminimum is the background fluorescence, and ymaximum is the highest measured fluorescence signal in the untreated wells. Drug concentrations (in μM) were transformed to the log(10)of the values. Means of each independent experiment were plotted as individual values, and the SD of the mean from the means shown as error bars. […] In case of transgenic cell lines, the built-in comparison Akaike’s information criteria (AICc) method was applied to the Log IC50s of the different cell lines. The test calculates a percentage probability of the simpler model “Log IC50 is the same for datasets” being correct. The test for homoscedasticity was performed to confirm if no weighting of values was appropriate.

Cc1nc(N)sc1-c1csc(Nc2ccc(C(F)(F)F)cc2)n1 [compound 1]
IC50 (P. falciparum NF54 [1]; NF54, 72 h, + IDP (125 μM)): 500 nM | IC50 (P. falciparum NF54 [1]; NF54, without IDP): 800 ± 100 nM | IC50 (Hep G2 cells; Homo sapiens, HepG2, 48 h): 54000 ± 2400 nM | IC50 (Hep G2 cells): > 50000 nM | DOXP, Mean of + 1 ([2]; 1 at 7.65 μM (5× IC50), UNT 1,163, P >0,99999): 1,163 | MEcDP, Mean of + 1 ([2]; 1 at 7.65 μM, UNT 11,24, P 0,720090): 10,20 | PEP, Mean of + 1 ([2]; 1 at 7.65 μM, UNT 11,98, P 0,005029): 5,297 | GC3P, Mean of + 1 ([2]; 1 at 7.65 μM, UNT 13,48, P 0,003896): 6,757 | 3PGA, Mean of + 1 ([2]; 1 at 7.65 μM, UNT 14,78, P 0,037010): 8,127 | G6P, Mean of + 1 ([2]; 1 at 7.65 μM, UNT 17,23, P 0,044056): 6,793 | MAL, Mean of + 1 ([2]; 1 at 7.65 μM, UNT 53,67, P 0,001940): 23,30 | 2PGA, Mean of + 1 ([2]; 1 at 7.65 μM, UNT 61,07, P 0,050194): 31,49 | CIT, Mean of + 1 ([2]; 1 at 7.65 μM, UNT 64,80, P 0,008553): 25,15 | CDP-ME, Mean of + 1 ([2]; 1 at 7.65 μM, UNT 0,06667, P 0,587914): 0,07667 | S7P, Mean of + 1 ([2]; 1 at 7.65 μM, UNT 90,64, P 0,340281): 54,93 | PYR, Mean of + 1 ([2]; 1 at 7.65 μM, UNT 102,5, P 0,030535): 28,19 | G1P/F6P, Mean of + 1 ([2]; 1 at 7.65 μM, UNT 103,0, P 0,112890): 57,13 | LAC, Mean of + 1 ([2]; 1 at 7.65 μM, UNT 104,2, P 0,388380): 80,23 | SUC, Mean of + 1 ([2]; 1 at 7.65 μM, UNT 118,0, P 0,002161): 60,23 | DMADP, Mean of + 1 ([2]; 1 at 7.65 μM, UNT 0,1667, P 0,032540): 0,1033 | HDMADP, Mean of + 1 ([2]; 1 at 7.65 μM, UNT 0,2200, P 0,306022): 0,1833 | MEP, Mean of + 1 ([2]; 1 at 7.65 μM, UNT 0,4233, P 0,070645): 0,3100 | FUM, Mean of + 1 ([2]; 1 at 7.65 μM, UNT 1668, P 0,003295): 727,7 | ACO, Mean of + 1 ([2]; 1 at 7.65 μM, UNT 1,877, P 0,144422): 1,140 | RU5P/RUP, Mean of + 1 ([2]; 1 at 7.65 μM, UNT 5,757, P 0,038874): 2,520 | IC50 (P. falciparum NF54 [3]): 800 ± 100 nM | IC50 (P. falciparum 3D7 [4]): 600 ± 200 nM | IC50 (P. falciparum Dd2): 800 ± 400 nM | IC50 [5]: 600 to 1700 nM | IC50 [6]: 1180 nM | MIC [7]: 5 to 10 µM | IC50 (P. falciparum 3D7 [8]; 95% CI in brackets, read-out: IC50 B): 1600 nM | IC50 (P. falciparum 3D7 [8]; read-out: IC50 3D7-II): 1700 ± 600 nM | IC50 (P. falciparum 3D7-DXPS+): 2080 nM | IC50 (P. falciparum 3D7-TPK+): 1760 nM
